Non-standard residues stand in square brackets, D forms with d. pGlu = O=C1CC[C@@H](C(=O)O)N1
Experiments:
Type in all cases: cell-based, human
gluten-reactive T cells [1] = experiment: Cytokine release assays taken together (IFNγ ELISpot, whole blood IFNγ and IP-10, in-tube IFNγ ELISA); conditions: blood collected after oral gluten challenge
Procedure, shortened: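 Whole blood with peptides (P3 0.05-50 μg/mL; P13/P14 0.025-25 μM; […]), 24 h, 37 °C; plasma IFNγ/IP-10 by multiplex beads. Tube assay: 1 mL blood with P3 or CEF, 24 h, plasma IFNγ ELISA; elevated if >7.2 pg/mL above medium tube and SI >1.25. ELISpot overnight on fresh PBMC.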

gluten-reactive T cells [2] = experiment: 96-well plate whole blood cytokine release, IP-10 by MAGPIX multiplex bead assay; conditions: for Percent of maximal response to individual gluten peptides, IP-10: after oral gluten challenge; for IP-10 WB MAGPIX % max Mean: n = 10, blood after oral gluten challenge, individual peptides 5 μM (Peptide 2* of P14, Pepscan: 10 μg/mL (5.45 μM))
gluten-reactive T cells [3] = experiment: 96-well plate whole blood cytokine release, IFNγ by MAGPIX multiplex bead assay; conditions: for Percent of maximal response to individual gluten peptides, IFNg: after oral gluten challenge; for IFNγ WB MAGPIX % max Mean: n = 8, blood after oral gluten challenge, individual peptides 5 μM (Peptide 2* of P14, Pepscan: 10 μg/mL (5.45 μM))
[4] = whole blood incubations after oral gluten challenge

Substance	Percent of maximal response to individual gluten peptides, IP-10 (gluten-reactive T cells [2]; Subject 1, Max. 2331 pg/mL)	Percent of maximal response to individual gluten peptides, IP-10 (gluten-reactive T cells [2]; Subject 2, Max. 3646 pg/mL)	Percent of maximal response to individual gluten peptides, IP-10 (gluten-reactive T cells [2]; Subject 3, Max. 9492 pg/mL)	Percent of maximal response to individual gluten peptides, IP-10 (gluten-reactive T cells [2]; Subject 4, Max. 9463 pg/mL)	Percent of maximal response to individual gluten peptides, IP-10 (gluten-reactive T cells [2]; Subject 5, Max. 9336 pg/mL)	Percent of maximal response to individual gluten peptides, IP-10 (gluten-reactive T cells [2]; Subject 6, Max. 5863 pg/mL)	Percent of maximal response to individual gluten peptides, IP-10 (gluten-reactive T cells [2]; Subject 7, Max. 2330 pg/mL)	Percent of maximal response to individual gluten peptides, IP-10 (gluten-reactive T cells [2]; Subject 8, Max. 4019 pg/mL)	Percent of maximal response to individual gluten peptides, IP-10 (gluten-reactive T cells [2]; Subject 9, Max. 8349 pg/mL)	Percent of maximal response to individual gluten peptides, IP-10 (gluten-reactive T cells [2]; Subject 10, Max. 8922 pg/mL)	IP-10 WB MAGPIX % max Mean (gluten-reactive T cells [2])	Percent of maximal response to individual gluten peptides, IFNg (gluten-reactive T cells [3]; Subject 2, Max. 116 pg/mL)	Percent of maximal response to individual gluten peptides, IFNg (gluten-reactive T cells [3]; Subject 3, Max. 799 pg/mL)	Percent of maximal response to individual gluten peptides, IFNg (gluten-reactive T cells [3]; Subject 4, Max. 136 pg/mL)	Percent of maximal response to individual gluten peptides, IFNg (gluten-reactive T cells [3]; Subject 6, Max. 72 pg/mL)	Percent of maximal response to individual gluten peptides, IFNg (gluten-reactive T cells [3]; Subject 7, Max. 17 pg/mL)	Percent of maximal response to individual gluten peptides, IFNg (gluten-reactive T cells [3]; Subject 8, Max. 47 pg/mL)	Percent of maximal response to individual gluten peptides, IFNg (gluten-reactive T cells [3]; Subject 9, Max. 67 pg/mL)	Percent of maximal response to individual gluten peptides, IFNg (gluten-reactive T cells [3]; Subject 10, Max. 229 pg/mL)	IFNγ WB MAGPIX % max Mean (gluten-reactive T cells [3])	other results
(pE)QPFPQPEQPFPLQPEQP-amide ([pGlu]QPFPQPEQPFPLQPEQP-NH2; SMILES CC(C)C[C@H](NC(=O)[C@@H]1CCCN1C(=O)[C@H](Cc1ccccc1)NC(=O)[C@@H]1CCCN1C(=O)[C@H](CCC(N)=O)NC(=O)[C@H](CCC(=O)O)NC(=O)[C@@H]1CCCN1C(=O)[C@H](CCC(N)=O)NC(=O)[C@@H]1CCCN1C(=O)[C@H](Cc1ccccc1)NC(=O)[C@@H]1CCCN1C(=O)[C@H](CCC(N)=O)NC(=O)[C@@H]1CCC(=O)N1)C(=O)N[C@@H](CCC(N)=O)C(=O)N1CCC[C@H]1C(=O)N[C@@H](CCC(=O)O)C(=O)N[C@@H](CCC(N)=O)C(=O)N1CCC[C@H]1C(N)=O) [Peptide 6]	34 % of max	21 % of max	≥ 100 % of max	≥ 100 % of max	8 % of max	0 % of max	1 % of max	8 % of max	≥ 100 % of max	56 % of max	43 % max	58 % of max	10 % of max	54 % of max	4 % of max	2 % of max	6 % of max	69 % of max	20 % of max	28 % max	activity relative to Peptide 14 in the cytokine release assays (gluten-reactive T cells [1]): approximately one-half to one-fifth as active as Peptide 14
(pE)PEQPIPEQPQPYPQQ-amide ([pGlu]PEQPIPEQPQPYPQQ-NH2; SMILES CC[C@H](C)[C@H](NC(=O)[C@@H]1CCCN1C(=O)[C@H](CCC(N)=O)NC(=O)[C@H](CCC(=O)O)NC(=O)[C@@H]1CCCN1C(=O)[C@@H]1CCC(=O)N1)C(=O)N1CCC[C@H]1C(=O)N[C@@H](CCC(=O)O)C(=O)N[C@@H](CCC(N)=O)C(=O)N1CCC[C@H]1C(=O)N[C@@H](CCC(N)=O)C(=O)N1CCC[C@H]1C(=O)N[C@@H](Cc1ccc(O)cc1)C(=O)N1CCC[C@H]1C(=O)N[C@@H](CCC(N)=O)C(=O)N[C@@H](CCC(N)=O)C(N)=O) [Peptide 3]	51 % of max	14 % of max	≥ 100 % of max	≥ 100 % of max	53 % of max	43 % of max	5 % of max	100 % of max	85 % of max	≥ 100 % of max	65 % max	35 % of max	92 % of max	66 % of max	63 % of max	6 % of max	89 % of max	60 % of max	81 % of max	62 % max	rank of activity among individual gluten peptides (gluten-reactive T cells [1]): second most active; whole blood IP-10 release relative to that stimulated by Peptide 14 (gluten-reactive T cells [2]; [4]): one-quarter less; whole blood IFNγ release relative to that stimulated by Peptide 14 (gluten-reactive T cells [3]; [4]): one-third less
